Data on one compound can be found in patent publication US6413998B1, “Compositions and methods for treating bone deficit conditions” (Osteoscreen, Inc., priority 1995, dated 2002).

The structures appear in SMILES notation.

For assay [1], the system named is BMP2 promoter. Nature of the assay: BMP-2 promoter luciferase reporter high throughput screening in 2T3-BMP-2-LUC cells. It counts as cell-based, mouse. The following applies: at concentration of maximal activity, about 3 μM. The text has this:
A rapid throughput screening test for compounds capable of stimulating expression of a reporter gene linked to a BMP promoter (a surrogate for the production of bone morphogenetic factors that are endogenously produced) is described in U.S. application Ser. No. 08/458,434, filed Jun. 2, 1995, the entire contents of which are incorporated herein by reference. This assay is also described as a portion of a study of immortalized murine osteoblasts (derived from a mouse expressing a transgene composed of a BMP2 promoter driving expression of T-antigen) in Ghosh-Choudhery, N. et al. Endocrinology (1996) 137:331-39. […]
Briefly, the assay utilizes cells transformed permanently or transiently with constructs in which the promoter of a bone morphogenetic protein, specifically BMP2 or BMP4, is coupled to a reporter gene, typically luciferase. These transformed cells are then evaluated for the production of the reporter gene product; compounds that activate the BMP promoter will drive production of the reporter protein, which can be readily assayed. […]
The treated cells were incubated for 24 hours at 37° C. and 5% CO2. […] Luminescence was measured on an automated 96-well luminometer, and was expressed as either picograms of luciferase activity per well or as picograms of luciferase activity per microgram of protein. […]

The test system of assay [2] is ICR Swiss white mice. The assay is described as follows: In vivo assay of effects of compounds on murine calvarial bone growth. On the set-up: species or system mouse. The conditions noted are these: compared to vehicle control; subcutaneous injection over right calvaria, day 14. The protocol:
Male ICR Swiss white mice, aged 4-6 weeks and weighing 13-26 gm, are employed, using 4-5 mice per group. The calvarial bone growth assay is performed as described in PCT application WO 95/24211, incorporated by reference. Briefly, the test compound or appropriate control vehicle is injected into the subcutaneous tissue over the right calvaria of normal mice. Typically, the control vehicle is the vehicle in which the compound was solubilzed, and is PBS containing 5% DMSO or is PBS containing Tween (2 μl/10 ml). The animals are sacrificed on day 14 and bone growth measured by histomorphometry. Bone samples for quantitation are cleaned from adjacent tissues and fixed in 10% buffered formalin for 24-48 hours, decalcified in 14% EDTA for 1-3 weeks, processed through graded alcohols, and embedded in paraffin wax. Three to five μm sections of the calvaria are prepared, and representative sections are selected for histomorphometric assessment of the effects on bone formation and bone resorption. Sections are measured by using a camera lucida attachment to trace directly the microscopic image onto a digitizing plate. Bone changes are measured on sections cut 200 μm apart, over 4 adjacent 1×1 mm fields on both the injected and noninjected sides of the calvaria. […]

The test system of assay [3] is TMC-23 cells. The assay is described as follows: Alkaline phosphatase (ALP) activity in chondrogenic cell line TMC-23. The format is cell-based, mouse. The following applies: day 2, 10^-9 M, compared to vehicle control.
Description: For measurement of alkaline phosphatase (ALP) activity, the technique of LF Bonewald et al. J Biol Chem (1992) 267:8943-49, was employed. Briefly, TMC-23 cells were plated in 96 well microtiter plates in DMEM containing 10% FCS at 4×10^3 cells/well. Two days after plating, the cells were confluent and the medium was replaced with fresh medium containing 10% FCS and different concentrations of compounds or recombinant BMP-2. After an additional 2 or 5 days incubation, the plates were washed twice with PBS, and then lysing solution (0.05% Triton X-100) was added (100 μl/well). The cells were lysed by three freeze-thaw cycles of −70° C. (30 min), followed by 37° C. (30 min with shaking). Twenty microliters of cell lysates were assayed with 80 μl of 5 mM p-nitrophenol phosphate in 1.5 M 2-amino-2-methyl-propanol buffer, pH 10.3 (Sigma ALP kit, Sigma Chemical Co., St. Louis, Mo.) for 10 min at 37° C. The reaction was stopped by the addition of 100 μl of 0.5 M NaOH. The spectrophotometric absorbance at 405 nm was compared to that of p-nitrophenol standards to estimate ALP activity in the samples. The protein content of the cell lysates was determined by the Bio-Rad protein assay kit (Bio-Rad, Hercules, Calif.). Specific activity was calculated using these two parameters.

On to `c1ccc(N=NC2=NNc3ccccc3S2)cc1` [Compound 59-0008, 3-phenylazo-1H-4,1,2-benzothiadiazine], for which the “response (luciferase luminescence)” value in assay [1] was “approximately 175 light emission units”. In addition, the “increase in width of new calvarial bone” value in assay [2] is on record as 4 fold. In assay [3], the “increase of ALP levels” value was “approximately 3 fold”.
